# Patent US9115092B2, “Substituted quinazoline and pyrido-pyrimidine derivatives” (Asana Biosciences, LLC, priority 2010, dated 2015)
# Legend:
# [1] = target: T1, PI3Kα (wild-type), P110/P85α (Homo sapiens, UniProt P42336); experiment: PI3 Kinase TR-FRET assay, PI3Kα (wild-type); type: biochemical
# T1 construct: made in house; host or cells: SF9 insect cells
# Method in brief: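 Sf9-expressed His-purified P110/P85α (5 ng) preincubated 60 min RT with compound and PIP2 in buffer with 40 mM MgCl2, 5 mM DTT; reaction started with ATP (PIP2 and ATP both 10 μM), 30 min RT. PIP3 detected by TR-FRET displacement, 665/615 nm ratio; IC50 from dose-response curves.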
# mTOR kinase = target: T2, mTOR kinase (Homo sapiens, UniProt P42345); experiment: mTOR kinase TR-FRET assay; type: biochemical; details: read-out: mTO R
# T2 construct: purchased Millipore, USA
# Method in brief: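 Compounds preincubated 60 min with mTOR (5 ng) in HEPES pH 7.5, EGTA, MnCl2; ULight-p70 S6K Thr389 peptide (50 nM) and ATP (20 μM) then added, 60 min at room temperature. EDTA-stopped, Eu-anti-phospho antibody detection by TR-FRET (665/615 nm); IC50 from variable-slope sigmoidal fit.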
# PC3 cells = experiment: XTT assay for cell viability, PC3 cells; type: cell-based, human; details: Homo sapiens, PC-3, cell viability
# Description: Using a commercial kit from Sigma Aldrich (Catalog #X34251) and following its protocol, PC3 cells in the log phase of growth were employed and seeded at an optimal density of 1000 cell/well on to 96 well plates and incubated for 24 h followed by the addition of compounds of formula (I) in serial dilutions. Compound dilutions were made in DMSO. The cells were incubated with the compounds of formula (I) for 96 h and XTT tetrazolium dye (Sigma, USA) was subsequently added and incubated at 37° C. After the color formation, absorbance was measured at 465 nm in a Spectramax® Gemini spectrophotometer. EC50 values were calculated using a sigmoidal dose response curve fit in GraphPad Prism® v5 software. The tested compounds of formula (I) which caused inhibition of PC3 cell proliferation as determined by this assay protocol are shown in Table 2.
# T1 sequence (P42336 whole entry): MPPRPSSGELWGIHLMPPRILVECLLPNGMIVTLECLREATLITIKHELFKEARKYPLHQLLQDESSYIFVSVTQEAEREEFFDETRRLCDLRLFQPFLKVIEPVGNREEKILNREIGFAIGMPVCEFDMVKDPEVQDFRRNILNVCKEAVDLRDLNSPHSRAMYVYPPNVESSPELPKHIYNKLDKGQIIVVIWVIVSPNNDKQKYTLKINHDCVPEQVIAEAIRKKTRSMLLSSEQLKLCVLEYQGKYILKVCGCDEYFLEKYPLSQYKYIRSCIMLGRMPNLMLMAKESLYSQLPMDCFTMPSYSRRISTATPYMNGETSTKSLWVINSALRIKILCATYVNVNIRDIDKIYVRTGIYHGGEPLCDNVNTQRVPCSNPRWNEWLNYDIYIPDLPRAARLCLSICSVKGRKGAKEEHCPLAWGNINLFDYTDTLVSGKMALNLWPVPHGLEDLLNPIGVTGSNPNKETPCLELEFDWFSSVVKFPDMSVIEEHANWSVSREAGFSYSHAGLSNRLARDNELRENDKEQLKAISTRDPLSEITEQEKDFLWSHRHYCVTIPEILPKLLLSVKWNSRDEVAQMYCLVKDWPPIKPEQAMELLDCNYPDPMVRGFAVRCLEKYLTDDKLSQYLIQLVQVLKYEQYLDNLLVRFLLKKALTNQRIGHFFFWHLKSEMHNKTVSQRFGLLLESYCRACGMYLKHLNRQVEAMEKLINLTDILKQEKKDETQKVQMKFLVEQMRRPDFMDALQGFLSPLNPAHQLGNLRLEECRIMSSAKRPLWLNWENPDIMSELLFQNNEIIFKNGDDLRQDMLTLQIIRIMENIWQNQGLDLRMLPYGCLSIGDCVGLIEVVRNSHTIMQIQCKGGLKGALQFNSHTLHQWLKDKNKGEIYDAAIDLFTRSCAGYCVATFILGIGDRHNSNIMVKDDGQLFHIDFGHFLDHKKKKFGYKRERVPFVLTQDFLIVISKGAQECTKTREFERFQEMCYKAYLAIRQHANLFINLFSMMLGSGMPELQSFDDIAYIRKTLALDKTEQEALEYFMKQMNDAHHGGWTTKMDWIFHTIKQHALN
# T1 sequence (P27986 whole entry partner): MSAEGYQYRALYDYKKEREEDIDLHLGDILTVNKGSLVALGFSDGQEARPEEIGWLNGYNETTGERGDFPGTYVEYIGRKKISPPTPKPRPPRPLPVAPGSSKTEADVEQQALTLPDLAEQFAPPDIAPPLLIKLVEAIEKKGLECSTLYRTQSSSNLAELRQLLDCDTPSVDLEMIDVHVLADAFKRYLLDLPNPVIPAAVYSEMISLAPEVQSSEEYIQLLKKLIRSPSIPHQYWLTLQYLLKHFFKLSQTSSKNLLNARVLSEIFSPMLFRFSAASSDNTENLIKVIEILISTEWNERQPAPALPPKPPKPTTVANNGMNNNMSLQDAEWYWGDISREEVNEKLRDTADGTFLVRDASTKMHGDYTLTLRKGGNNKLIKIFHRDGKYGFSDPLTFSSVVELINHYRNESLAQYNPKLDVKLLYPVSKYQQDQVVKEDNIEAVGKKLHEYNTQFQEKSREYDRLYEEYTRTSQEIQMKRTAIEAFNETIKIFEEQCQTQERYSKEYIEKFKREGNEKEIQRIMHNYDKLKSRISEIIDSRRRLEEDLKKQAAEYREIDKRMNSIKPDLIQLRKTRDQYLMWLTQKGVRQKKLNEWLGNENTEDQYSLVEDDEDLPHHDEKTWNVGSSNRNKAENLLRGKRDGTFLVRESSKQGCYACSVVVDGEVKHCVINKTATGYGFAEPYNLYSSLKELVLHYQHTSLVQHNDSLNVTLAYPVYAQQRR
SMILES,IC50 [1] [nM],IC50 (mTOR kinase) [nM],IC50 (PC3 cells) [nM]
"COc1ccc(-c2ccc3c(N4CCOCC4)nc(-c4ccc(NC(=O)Nc5ccc(C(=O)N(C)C)c(F)c5)cc4)nc3c2)cn1 [Example 259, 2-fluoro-4-(3-(4-(7-(6-methoxypyridin-3-yl)-4-morpholino-quinazolin-2-yl)phenyl)ureido)-N,N-dimethyl-benzamide]",50 to 200,< 50,201 to 10000
"CN(C)C(=O)c1ccc(NC(=O)Nc2ccc(-c3nc(N4CCOCC4)c4cc(F)c(-c5cncnc5)cc4n3)c(F)c2)cc1 [Example 256, 4-(3-(3-fluoro-4-(6-fluoro-4-morpholino-7-(pyrimidin-5-yl)quinazolin-2-yl)phenyl)ureido)-N,N-dimethyl-benzamide]",50 to 200,50 to 200,201 to 10000
"CN(C)C(=O)c1ccc(NC(=O)Nc2ccc(-c3nc(N4CCOCC4)c4ccc(-c5cncnc5)cc4n3)cc2)cc1F [Example 240, 2-fluoro-N,N-dimethyl-4-(3-(4-(4-morpholino-7-(pyrimidin-5-yl)quinazolin-2-yl)phenyl)ureido)-benzamide]",< 50,< 50,201 to 10000
"CN(C)C(=O)c1ccc(NC(=O)Nc2ccc(-c3nc(N4CCOCC4)c4cc(F)c(-c5cncnc5)cc4n3)cc2)cc1 [Example 30, 4-{3-[4-(6-fluoro-4-morpholin-4-yl-7-pyrimidin-5-yl-quinazolin-2-yl)-phenyl]-ureido}-N,N-dimethyl-benzamide]",< 50,< 50,< 100
"CN1CCN(C(=O)c2ccc(NC(=O)Nc3ccc(-c4nc(N5CCOCC5)c5cc(F)c(-c6cccnc6)cc5n4)cc3)cc2)CC1 [Example 4, 1-[4(6-Fluoro-4-morpholin-4-yl-7-pyridin-3-yl-quinazolin-2-yl)-phenyl]-3-[4-(4-methyl-piperazine-1-carbonyl)-phenyl]-urea]",< 50,< 50,< 100
"CN1CCN(C(=O)c2ccc(NC(=O)Nc3ccc(-c4nc(N5CCOCC5)c5ccc(-c6cncnc6)cc5n4)cc3)cc2)CC1 [Example 79, 1-[4-(4-methyl-piperazine-1-carbonyl)-phenyl]-3-[4-(4-morpholin-4-yl-7-pyrimidin-5-yl-quinazolin-2-yl)-phenyl]-urea]",201 to 10000,< 50,501 to 5000
"COc1ncc(-c2ccc3c(N4CCOCC4)nc(-c4ccc(NC(=O)Nc5ccc(C(=O)N(C)C)cc5)cc4)nc3c2)cn1 [Example 75, 4-(3-{4-[7-(2-methoxy-pyrimidin-5-yl)-4-morpholin-4-yl-quinazolin-2-yl]-phenyl}-ureido)-N,N-dimethyl-benzamide]",< 50,< 50,< 100
"COc1ncc(-c2ccc3c(N4CCOCC4)nc(-c4ccc(NC(=O)Nc5ccc(C(=O)N(C)C)c(F)c5)cc4)nc3c2)cn1 [Example 257, 2-fluoro-4-(3-(4-(7-(2-methoxypyrimidin-5-yl)-4-morpholino-quinazolin-2-yl)phenyl)ureido)-N,N-dimethyl-benzamide]",< 50,< 50,201 to 10000
"CN(C)C(=O)c1ccc(NC(=O)Nc2ccc(-c3nc(N4CCOCC4)c4ccc(-c5cccnc5F)cc4n3)cc2)cc1F [Example 255, 2-fluoro-4-(3-(4-(7-(2-fluoropyridin-3-yl)-4-morpholino-quinazolin-2-yl)phenyl)ureido)-N,N-dimethyl-benzamide]",50 to 200,< 50,201 to 10000
"CN(C)C(=O)c1ccc(NC(=O)Nc2ccc(-c3nc(N4CCOCC4)c4ncc(-c5cnn(C)c5)cc4n3)cc2F)cn1 [Example 124, 5-(3-(2-fluoro-4-(7-(1-methyl-1H-pyrazol-4-yl)-4-morpholino-pyrido[3,2-d]pyrimidin-2-yl)phenyl)ureido)-N,N-dimethylpicolinamide]",< 50,< 50,201 to 10000
"CN1CCN(C(=O)c2ccc(NC(=O)Nc3ccc(-c4nc(N5CCOCC5)c5ncc(-c6cncnc6)cc5n4)cc3)cc2)CC1 [Example 67, 1-[4-(4-methyl-piperazine-1-carbonyl)-phenyl]-3-[4-(4-morpholin-4-yl-7-pyrimidin-5-yl-pyrido[3,2-d]pyrimidin-2-yl)-phenyl]-urea]",< 50,< 50,100 to 500
"CN(C)C(=O)c1ccc(NC(=O)Nc2ccc(-c3nc(N4CCOCC4)c4cccc(-c5ccc(F)nc5)c4n3)cc2)cc1 [Example 6, 4-(3-{4-[8-(6-Fluoro-pyridin-3-yl)-4-morpholin-4-yl-quinazolin-2-yl]-phenyl}-ureido)-N,N-dimethyl-benzamide]",50 to 200,< 50,100 to 500
"CN(C)C(=O)c1ccc(NC(=O)Nc2ccc(-c3nc(N4CCOCC4)c4cccc(-c5cccc(O)c5)c4n3)cc2)cc1 [Example 5, 4-(3-{4-[8-(3-Hydroxy-phenyl)-4-morpholin-4-yl-quinazolin-2-yl]-phenyl}-ureido)-N,N-dimethyl-benzamide]",50 to 200,< 50,< 100
"Cc1ccncc1-c1cnc2c(N3CCOCC3)nc(-c3ccc(NC(=O)Nc4ccc(C(=O)N(C)C)cc4)c(F)c3)nc2c1 [Example 116, 4-(3-(2-fluoro-4-(7-(4-methylpyridin-3-yl)-4-morpholino-pyrido[3,2-d]pyrimidin-2-yl)phenyl)ureido)-N,N-dimethyl-benzamide]",50 to 200,50 to 200,501 to 5000
"CC1CN(c2nc(-c3ccc(NC(=O)Nc4ccc(C(=O)N(C)C)cc4)cc3)nc3cc(-c4cncnc4)ccc23)CCO1 (stereo not drawn) [Example 138, N,N-dimethyl-4-(3-(4-(4-(2-methylmorpholino)-7-(pyrimidin-5-yl)quinazolin-2-yl)phenyl)ureido)-benzamide]",< 50,< 50,201 to 10000

# Results, then the compound that gave them:
IC50 [1] [nM],IC50 (mTOR kinase) [nM],IC50 (PC3 cells) [nM],SMILES
< 50,< 50,< 100,"CN(C)C(=O)c1ccc(NC(=O)Nc2ccc(-c3nc(N4CCOCC4)c4ncc(-c5cccc(S(C)(=O)=O)c5)cc4n3)cc2)cc1 [Example 39, 4-(3-{4-[7-(3-methanesulfonyl-phenyl)-4-morpholin-4-yl-pyrido[3,2-d]pyrimidin-2-yl]-phenyl}-ureido)-N,N-dimethyl-benzamide]"
50 to 200,< 50,100 to 500,"CN(C)C(=O)c1ccc(NC(=O)Nc2ccc(-c3nc(N4CCOCC4)c4ccc(-c5cccnc5F)cc4n3)cc2)cc1 [Example 21, 4-(3-{4-[7-(2-fluoro-pyridin-3-yl)-4-morpholin-4-yl-quinazolin-2-yl]-phenyl}-ureido)-N,N-dimethyl-benzamide]"
50 to 200,< 50,100 to 500,"CN(C)C(=O)c1ccc(NC(=O)Nc2ccc(-c3nc(N4CCOCC4)c4ccc(-c5cccc(S(C)(=O)=O)c5)cc4n3)cc2)cn1 [Example 31, 5-(3-{4-[7-(3-methanesulfonyl-phenyl)-4-morpholin-4-yl-quinazolin-2-yl]-phenyl}-ureido)-pyridine-2-carboxylic acid dimethylamide]"
< 50,50 to 200,501 to 5000,"CN(C)C(=O)c1ccc(NC(=O)Nc2ccc(-c3nc(N4CCOCC4)c4ccc(-c5cccs5)cc4n3)cc2)cc1 [Example 74, N,N-dimethyl-4-{3-[4-(4-morpholin-4-yl-7-thiophen-2-yl-quinazolin-2-yl)-phenyl]-ureido}-benzamide]"
< 50,< 50,< 100,"CN(C)C(=O)c1ccc(NC(=O)Nc2ccc(-c3nc(N4CCOCC4)c4cc(F)c(-c5cccc(S(C)(=O)=O)c5)cc4n3)cc2)cc1 [Example 36, 4-(3-{4-[6-fluoro-7-(3-methanesulfonyl-phenyl)-4-morpholin-4-yl-quinazolin-2-yl]-phenyl}-ureido)-N,N-dimethyl-benzamide]"
50 to 200,50 to 200,501 to 5000,"CS(=O)(=O)c1cccc(-c2ccc3c(N4CCOCC4)nc(-c4ccc(NC(=O)Nc5ccc(C(N)=O)cc5)cc4)nc3c2)c1 [Example 25, 4-(3-{4-[7-(3-methanesulfonyl-phenyl)-4-morpholin-4-yl-quinazolin-2-yl]-phenyl}-ureido)-benzamide]"
< 50,50 to 200,100 to 500,"CN(C)C(=O)c1ccc(NC(=O)Nc2ccc(-c3nc(N4CCOCC4)c4ccc(-c5ccsc5)cc4n3)cc2)cc1 [Example 52, N,N-dimethyl-4-{3-[4-(4-morpholin-4-yl-7-thiophen-3-yl-quinazolin-2-yl)-phenyl]-ureido}-benzamide]"
< 50,50 to 200,201 to 10000,"CN(C)C(=O)c1ccc(NC(=O)Nc2ccc(-c3nc(N4CCOCC4)c4ccc(-c5cccc(S(C)(=O)=O)c5)cc4n3)c(F)c2)cc1 [Example 245, 4-(3-(3-fluoro-4-(7-(3-(methylsulfonyl)phenyl)-4-morpholino-quinazolin-2-yl)phenyl)ureido)-N,N-dimethyl-benzamide]"
